These results are taken from patent US8580827B2 (priority 2009, dated 2013).

Data set [1] deals with live vaccine strain (LVS, type B). The data set is described as follows: microbe, parasite or virus in culture. In kind it is cell-based, F. tularensis.
Data set [2] deals with F. novicida strain U112. The experiment in a line: microbe, parasite or virus in culture. In kind it is cell-based, F. tularensis subspecies novicida.
Data set [3] relates to Salmonella enterica serovar Typhimurium (ATCC 14028). In kind it is cell-based.
In data set [4] the test system is F. tularensis strain Schu S4 (type A). The data set is described as follows: microbe, parasite or virus in culture. In kind it is cell-based.
The test system of data set [5] is Escherichia coli (ATCC 25922). In kind it is cell-based.
The subject of data set [6] is intracellular F. novicida in TPA-differentiated human THP-1 macrophages. In kind it is cell-based.
Data set [7] concerns intracellular F. tularensis (type A, Schu S4) in TPA-treated THP-1 cells. In kind it is cell-based.
For data set [8], the system named is intracellular F. novicida in RAW264.7 murine macrophages. In kind it is cell-based.
In data set [9] the test system is RAW264.7 murine macrophage cells.
Where [10] appears, read: Francisella tularensis, U112, 24 h.

SMILES strings stand for the structures. In brackets after ≈: the same amount, converted by molar mass. Entries after “also recorded” stand apart in the source; their conditions may differ. Read-outs that look alike come from different tables or passages of the source.

In the case of `Nc1ccc(-n2nc(C(F)(F)F)cc2-c2ccc(-c3cc(Cl)c(Cl)cc3Cl)cc2)cc1` [Compound 17, 4-[5-(2′,4′,5′-Trichloro-biphenyl-4-yl)-3-trifluoromethyl-pyrazol-1-yl]-phenylamine], the MIC entry in data set [1] was “potent inhibitor”; in data set [2], “no measurable inhibitory effect”.

In the case of `NC(=O)c1ccc(-n2nc(C(F)(F)F)cc2-c2ccc(-c3ccc(Cl)cc3)cc2)cc1` [Compound 2, 4-[5-(4′-Chloro-biphenyl-4-yl)-3-trifluoromethyl-pyrazol-1-yl]-benzamide], the MIC in data set [1] (Francisella tularensis, 48 h) is not above 4 µg/mL; in data set [2] (setting [10]), not above 4 µg/mL.

`Nc1ccc(-n2nc(C(F)(F)F)cc2-c2ccc(-c3ccccc3)cc2)cc1` [Compound 16, 4-(5-Biphenyl-4-yl-3-trifluoromethyl-pyrazol-1-yl)-phenylamine]: the MIC was not above 4 µg/mL in [1] (Francisella tularensis, 48 h) and not above 4 µg/mL in data set [2] (setting [10]).

As for `Cc1ccc(-c2cc(C(F)(F)F)nn2-c2ccc(S(N)(=O)=O)cc2)cc1` [celecoxib, 4-[5-(4-methylphenyl)-3-(trifluoromethyl)pyrazol-1-yl]benzenesulfonamide, reference compound], the “decrease in CFU” value in data set [1] and in [2] was “≧log decrease in CFU” in each case. The MIC in data set [1] (Francisella tularensis, 48 h) amounted to 16 µg/mL (≈ 42 µM); in data set [4] (Francisella tularensis, 24 h), 16 µg/mL (≈ 42 µM). In addition, in data set [3], the “activity against S. enterica serovar Typhimurium” value is “inactive”. In data set [5], the “activity against E. coli” value is “inactive”.

As to `NS(=O)(=O)c1ccc(-n2nc(C(F)(F)F)cc2-c2ccc(-c3ccc(Cl)cc3)cc2)cc1` [Compound 11, 4-[5-(4′-Chloro-biphenyl-4-yl)-3-trifluoromethyl-pyrazol-1-yl]-benzenesulfonamide], the MIC in data set [1] (Francisella tularensis, 48 h) was not above 4 µg/mL; in [2] (setting [10]), not above 4 µg/mL.

Turning to `Nc1ccc(-n2nc(C(F)(F)F)cc2-c2ccc(-c3ccc(Br)cc3)cc2)cc1` [Compound 20, 4-[5-(4′-Bromo-biphenyl-4-yl)-3-trifluoromethyl-pyrazol-1-yl]-phenylamine], the MIC was not above 4 µg/mL in [1] (Francisella tularensis, 48 h) and not above 4 µg/mL in [2] (setting [10]). In addition, the “activity against S. enterica serovar Typhimurium” value in [3] is “inactive”. Also, the “inhibition of intracellular F. novicida survival” value in [6] and in data set [8] was “effectively inhibits; also recorded: could inhibit the survival of intracellular Francisella” each time. Moreover, in data set [7], the “inhibition of intracellular Schu S4 survival” value was “significant inhibitory effect”. The “activity against E. coli” value in [5] is “inactive”.

Turning to `NS(=O)(=O)c1ccc(-n2nc(C(F)(F)F)cc2-c2ccc(-c3cc(Cl)c(Cl)cc3Cl)cc2)cc1` [Compound 12, 4-[5-(2′,4′,5′-Trichloro-biphenyl-4-yl)-3-trifluoromethyl-pyrazol-1-yl]-benzenesulfonamide], the cytotoxicity for macrophages result in data set [9] was “showed cytotoxicity for macrophages”. Moreover, the MIC in [2] (setting [10]) was not above 4 µg/mL.

Turning to `CS(=O)(=O)c1ccc(C2=C(c3ccccc3)C(=O)OC2)cc1` [rofecoxib], the effect on bacteria entry in data set [1], in data set [3], in data set [2], in data set [4] and in [5] was “no appreciable effect” throughout.
